Measured values reported in US9833494B2, “Methods of treating medical conditions using peptides” (KeyBioscience AG, priority 2009, dated 2017).
“Also recorded” adds a separate entry of the source. Bridge positions count the residues as written; N and C are the ends. Ends that are not written are not given here.

Legend:
[1] = relative weight change by rats injected daily; type: in vivo, rat; conditions: for relative weight change: same dose; for effectiveness in weight control: FIGS. 5 and 6
Text: FIG. 5 is a graph illustrating relative weight change by rats injected daily with the same dose of either a placebo, UGP269 (SEQ ID NO: 12) or UGP 271 (SEQ ID NO: 13), at 7 and 14 days after commencement of the injection regimen. […] UGP 271 contained nearly the same sequence of amino acids as UGP269 except for the replacement of three amino acids at positions 26, 27 and 29.
FIG. 6 is a graph illustrating relative weight change by rats injected daily with the same dose of either a placebo, salmon calcitonin, UGP 271 (SEQ ID NO: 13) or UGP 281 (SEQ ID NO: 14) at 7 and 14 days after commencement of the injection regimen. FIG. 1 is a graph illustrating data from a bioassay comparing cAMP response for a peptide of the invention, SEQ ID NO:3, versus recombinant salmon calcitonin. […] UGP281 and UGP271 had identical amino acid sequences except that UGP281 was acylated at the N-terminus with acetate.

[2] = placebo controlled crossover study with Beagle dogs, oral enteric-coated capsules (food intake, weight); type: in vivo, Beagle dog; conditions: for effect on food intake / change in weight during the dosing period: oral capsules; for effect on food intake: equivalent doses, week of dosing, FIG. 2; for change in weight during the dosing period: same dose, FIG. 3
Text: (§1) FIG. 2 is a graph illustrating the effect on food consumption provided by SEQ ID NO: 3 versus a placebo and two known appetite suppressants in a Beagle dog study. Average daily change in food consumption is shown following administration of oral capsules containing various doses of sCT, PYY or SEQ ID NO: 3 given to beagle dogs for four to seven days.
as §1, with “3” for “2”, “weight” for “food consumption”, “PYY,” for “PYY”
The effect of peptide SEQ ID NO: 3 on food intake was investigated in a placebo controlled crossover study with Beagle dogs. Peptide SEQ ID NO: 3, as well as salmon calcitonin (sCT) and PYY(3-36)NH2 were formulated in enteric-coated capsules for oral delivery. The capsules also contained excipients that inhibit proteases and enhance the absorption of peptides. Placebo capsules contained the same excipients without the peptide. Food and water intake, as well as the weight of the dogs was monitored daily before, during, and after the dosing period. Dogs were allowed access to a known amount of food for an 8 hour period every day, and water was provided ad libitum. […] The food intake of dogs given a placebo remained unchanged.

calcitonin receptor = molecular target: T1, calcitonin receptor (Homo sapiens, UniProt P30988); assay: cAMP response bioassay with T47D cells; type: cell-based; conditions: FIG. 1, versus recombinant salmon calcitonin
T1 construct: endogenous in cells; host or cells: T47D cells
T1 sequence (P30988 25-474): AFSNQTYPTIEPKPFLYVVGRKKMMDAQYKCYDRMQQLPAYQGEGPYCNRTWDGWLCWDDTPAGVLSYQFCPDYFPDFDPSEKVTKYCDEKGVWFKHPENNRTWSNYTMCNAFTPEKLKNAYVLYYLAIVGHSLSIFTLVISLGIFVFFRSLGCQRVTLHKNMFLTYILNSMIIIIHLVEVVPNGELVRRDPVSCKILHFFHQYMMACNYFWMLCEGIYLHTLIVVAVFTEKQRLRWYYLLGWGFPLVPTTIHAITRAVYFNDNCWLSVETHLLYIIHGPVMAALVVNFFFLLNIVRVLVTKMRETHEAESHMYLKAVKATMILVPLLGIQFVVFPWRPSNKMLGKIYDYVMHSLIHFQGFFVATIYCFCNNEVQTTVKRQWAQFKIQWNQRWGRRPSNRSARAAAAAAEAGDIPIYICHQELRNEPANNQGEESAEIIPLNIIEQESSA
Description: FIG. 1 is a graph illustrating data from a bioassay comparing cAMP response for a peptide of the invention, SEQ ID NO: 3, versus recombinant salmon calcitonin. Two replicate bioassay experiments were performed measuring the cAMP response with T47D cells. Each experiment compared three samples of SEQ ID NO: 3 to a sample of rsCT.

[3] = molecular target: T2, calcitonin receptors on T47D cells (Homo sapiens, UniProt P30988); assay: binding to calcitonin receptors on T47D cells
T2 construct: endogenous in cells; host or cells: T47D cells
T2 sequence (P30988 25-474): T1 sequence (P30988 25-474)
Text: FIG. 4 is a graph illustrating calcitonin-like properties of three peptides of the invention in comparison to salmon calcitonin in an assay that measures binding to calcitonin receptors on T47D cells. The three peptides of the invention are UGP269 (SEQ ID NO: 12), UGP 271 (SEQ ID NO: 13) and UGP281 (SEQ ID NO: 14).

[4] = rats injected intramuscularly daily, two weeks, FIG. 6
[5] = rats injected daily, 7 and 14 days, FIG. 5, versus placebo

Row | Compound | relative weight change [1, 4] | effect on food intake [2] | change in weight during the dosing period [2] | potency in reducing food consumption relative to sCT ([2]; FIGS. 1-3) | cAMP response (indicator of calcitonin receptor activation) compared with salmon calcitonin (calcitonin receptor) | relative weight change [1, 5] | effectiveness in weight control ([1]; rats) | binding to calcitonin receptors compared with sCT ([3]; FIG. 4) | binding to calcitonin receptors compared with sCT ([3]; FIG. 4, listed as UGP 271) | enhancement of efficacy by the acetyl group on cysteine-1 ([1]; rats, FIG. 6, UGP281 versus UGP271)
1 | CC(C)C[C@H](NC(=O)[C@H](CCCCN)NC(=O)CNC(=O)[C@H](CC(C)C)NC(=O)[C@@H](NC(=O)[C@@H]1CSSC[C@H](N)C(=O)N[C@@H](CO)C(=O)N[C@@H](CC(N)=O)C(=O)N[C@@H](CC(C)C)C(=O)N[C@@H](CO)C(=O)N[C@@H]([C@@H](C)O)C(=O)N1)C(C)C)C(=O)N[C@@H](CO)C(=O)N[C@@H](CCC(N)=O)C(=O)N[C@@H](CCC(=O)O)C(=O)N[C@@H](CC(C)C)C(=O)N[C@@H](Cc1c[nH]cn1)C(=O)N[C@@H](CCCCN)C(=O)N[C@@H](CC(C)C)C(=O)N[C@@H](CCC(N)=O)C(=O)N[C@H](C(=O)N[C@@H](Cc1ccc(O)cc1)C(=O)N1CCC[C@H]1C(=O)N[C@@H](CCCNC(=N)N)C(=O)N[C@H](C(=O)N[C@@H](CC(N)=O)C(=O)N[C@H](C(=O)NCC(=O)N[C@@H](CO)C(=O)NCC(=O)N[C@H](C(=O)N1CCC[C@H]1C(N)=O)[C@@H](C)O)[C@@H](C)O)[C@@H](C)O)[C@@H](C)O [sCT, salmon calcitonin] | significant weight loss | significantly decreased food intake | small but significant reduction in weight | – | – | – | – | – | – | –
2 | PYY(3-36)NH2 | – | lesser effect | 0.05 % per day | – | – | – | – | – | – | –
3 | SEQ ID NO: 3: salmon calcitonin sequence except asparagine at position 30 and tyrosine at position 32, amidated at tyrosine-32 (CSNLSTCVLGKLSQELHKLQTYPRTNTGSNTY-NH2; ends and bridges not checked) | – | significantly decreased food intake | small but significant reduction in weight | comparable to that of the bone anti-resorptive peptide sCT | less potent when binding to the calcitonin receptor than is natural salmon calcitonin | – | – | – | – | –
4 | UGP269: peptide of the invention, calcitonin analog (CSNLSTCVLGKLSQELHKLQTYPRTNTGSNTY-NH2; disulfide 1-7; N-terminus assumed; SMILES CC(C)C[C@H](NC(=O)[C@H](CCCCN)NC(=O)CNC(=O)[C@H](CC(C)C)NC(=O)[C@@H](NC(=O)[C@@H]1CSSC[C@H](N)C(=O)N[C@@H](CO)C(=O)N[C@@H](CC(N)=O)C(=O)N[C@@H](CC(C)C)C(=O)N[C@@H](CO)C(=O)N[C@@H]([C@@H](C)O)C(=O)N1)C(C)C)C(=O)N[C@@H](CO)C(=O)N[C@@H](CCC(N)=O)C(=O)N[C@@H](CCC(=O)O)C(=O)N[C@@H](CC(C)C)C(=O)N[C@@H](Cc1c[nH]cn1)C(=O)N[C@@H](CCCCN)C(=O)N[C@@H](CC(C)C)C(=O)N[C@@H](CCC(N)=O)C(=O)N[C@H](C(=O)N[C@@H](Cc1ccc(O)cc1)C(=O)N1CCC[C@H]1C(=O)N[C@@H](CCCNC(=N)N)C(=O)N[C@H](C(=O)N[C@@H](CC(N)=O)C(=O)N[C@H](C(=O)NCC(=O)N[C@@H](CO)C(=O)N[C@@H](CC(N)=O)C(=O)N[C@H](C(=O)N[C@@H](Cc1ccc(O)cc1)C(N)=O)[C@@H](C)O)[C@@H](C)O)[C@@H](C)O)[C@@H](C)O) | – | – | – | – | – | less weight gain over two weeks than those injected with placebo | good effectiveness in weight control | less binding to sCT receptors than sCT; also recorded: less binding affinity for the calcitonin receptor than does salmon calcitonin | – | –
5 | UGP271: nearly the same sequence as UGP269 except for the replacement of three amino acids at positions 26, 27 and 29 (CSNLSTCVLGKLSQELHKLQTYPRTDVGANTY-NH2; disulfide 1-7; N-terminus assumed; SMILES CC(C)C[C@H](NC(=O)[C@H](CCCCN)NC(=O)CNC(=O)[C@H](CC(C)C)NC(=O)[C@@H](NC(=O)[C@@H]1CSSC[C@H](N)C(=O)N[C@@H](CO)C(=O)N[C@@H](CC(N)=O)C(=O)N[C@@H](CC(C)C)C(=O)N[C@@H](CO)C(=O)N[C@@H]([C@@H](C)O)C(=O)N1)C(C)C)C(=O)N[C@@H](CO)C(=O)N[C@@H](CCC(N)=O)C(=O)N[C@@H](CCC(=O)O)C(=O)N[C@@H](CC(C)C)C(=O)N[C@@H](Cc1c[nH]cn1)C(=O)N[C@@H](CCCCN)C(=O)N[C@@H](CC(C)C)C(=O)N[C@@H](CCC(N)=O)C(=O)N[C@H](C(=O)N[C@@H](Cc1ccc(O)cc1)C(=O)N1CCC[C@H]1C(=O)N[C@@H](CCCNC(=N)N)C(=O)N[C@H](C(=O)N[C@@H](CC(=O)O)C(=O)N[C@H](C(=O)NCC(=O)N[C@@H](C)C(=O)N[C@@H](CC(N)=O)C(=O)N[C@H](C(=O)N[C@@H](Cc1ccc(O)cc1)C(N)=O)[C@@H](C)O)C(C)C)[C@@H](C)O)[C@@H](C)O) | modest weight loss | – | – | – | – | no weight gain | good effectiveness in weight control | less binding to sCT receptors than sCT | less binding affinity for the calcitonin receptor than does salmon calcitonin | –
6 | UGP281: amino acid sequence identical to UGP271 except acylated at the N-terminus with acetate (Ac-CSNLSTCVLGKLSQELHKLQTYPRTDVGANTY-NH2; disulfide 1-7; SMILES CC(=O)N[C@H]1CSSC[C@@H](C(=O)N[C@H](C(=O)N[C@@H](CC(C)C)C(=O)NCC(=O)N[C@@H](CCCCN)C(=O)N[C@@H](CC(C)C)C(=O)N[C@@H](CO)C(=O)N[C@@H](CCC(N)=O)C(=O)N[C@@H](CCC(=O)O)C(=O)N[C@@H](CC(C)C)C(=O)N[C@@H](Cc2c[nH]cn2)C(=O)N[C@@H](CCCCN)C(=O)N[C@@H](CC(C)C)C(=O)N[C@@H](CCC(N)=O)C(=O)N[C@H](C(=O)N[C@@H](Cc2ccc(O)cc2)C(=O)N2CCC[C@H]2C(=O)N[C@@H](CCCNC(=N)N)C(=O)N[C@H](C(=O)N[C@@H](CC(=O)O)C(=O)N[C@H](C(=O)NCC(=O)N[C@@H](C)C(=O)N[C@@H](CC(N)=O)C(=O)N[C@H](C(=O)N[C@@H](Cc2ccc(O)cc2)C(N)=O)[C@@H](C)O)C(C)C)[C@@H](C)O)[C@@H](C)O)C(C)C)NC(=O)[C@H]([C@@H](C)O)NC(=O)[C@H](CO)NC(=O)[C@H](CC(C)C)NC(=O)[C@H](CC(N)=O)NC(=O)[C@H](CO)NC1=O) | significant weight loss | – | – | – | – | – | good effectiveness in weight control | less binding to sCT receptors than sCT; also recorded: less binding affinity for the calcitonin receptor than does salmon calcitonin | – | substantial enhancement of efficacy
